According to patent US20250152605A1, “METHOD AND DRUG FOR TREATING NEURONAL CEROID LIPOFUSCINOSIS” (priority 2021, published 2025):

Key:
[1] = tested on: KEAP1-knockdown CLN3^Δex7/8 human neurons; assay: Lysotracker staining of KEAP1-knockdown CLN3^Δex7/8 human neurons; type: cell-based; details: added to KEAP1-knockdown CLN3^Δex7/8 human neurons
Method: shRNA knockdown experiments of genes such as CLN3 and KEAP1 were conducted in induced neural stem cells and neurons, with specific steps as follows: the neural stem cells were planted into a desired cell culture plate to a cell density of about 50% or the neural stem cells were differentiated into human neurons in the cell culture plate according to experimental requirements; the shRNA lentiviral plasmids of CLN3 and KEAP1 genes and the control lentiviral plasmid expressing non-target sequences were selected from the MISSIOH human shRNA library of Sigma Aldrich, and the sequences were shown in Table 6; Lentiviruses was packaged in 10 cm cell culture plates and virus-containing supernatant was collected by filtration according to the method described above; the supernatant and lentivirus concentrate (40% PEG-8000 and 1.2M sodium chloride dissolved in dPBS solution, pH˜ 7.0) were mixed in a volume ratio of 1:3, and incubated overnight at 4° C. with slow rotation; centrifugation at 13000 g for 30 minutes at 4° C., and the supernatant was discarded, and the pellet was resuspended in 1 mL of fresh cell culture medium and added to the target cells; after 8 hours of infection, the virus was aspirated and fresh cell culture medium was added; 48 hours after infection, 1.5 μg/mL puromycin was added for selection for 72 hours, and the surviving cells were used for subsequent experiments. […]

[2] = tested on: CLN3^Δex7/8 human neural stem cells; assay: Tandem LC3 autophagic flux in human neural stem cells; type: cell-based
Excerpt: After lysosomal function defects were detected in CLN3^Δex7/8 neural stem cells and neurons, autophagic flux in the cells was further examined. Equal amounts of lentivirus packaged with tandem LC3 plasmid were used to infect wild-type and CLN3^Δex7/8 cells to label intracellular autophagosomes.
Autophagosomes in neural stem cells were labeled using tandem LC3, and the number of autophagosomes with green fluorescence and those with red fluorescence only were observed by high-intensity laser confocal microscope.

[3] = tested on: CLN3^Δex7/8 human neurons; assay: Lysotracker staining of CLN3^Δex7/8 human neurons, flow cytometry; type: cell-based
Method: In analyzing the mean fluorescence intensity of neural stem cells and neuronal staining or single cell establishment of NRK cells, flow cytometry was used: the cell medium was aspirated off, after wash with dPBS once, the digestive enzyme corresponding to the cell type was added to digest into single cells; the supernatant was removed by centrifugation, and the cells were resuspended with 1 mL of fresh medium; the cell suspension with filtered through 40 μm filter membrane and the single cell filtrate was collected; the single cell filtrate was transferred to a flow tube and analyzed or sorted using BD FACS Aria III; in the analysis, the fluorescence intensity of 1×10^4 cells for each sample was analyzed to obtain the mean fluorescence intensity (MFI); for sorting, cells were received in 96 well plates with medium, one cell per well to establish a cell line.
Studies above have shown that CLN3^Δex7/8 human neurons feature lysosomal acidity dysregulation. To investigate the effect of Compound G on lysosomal acidity in CLN3^Δex7/8 neurons, Lysotracker dye was used for staining and flow cytometry was used for analyzing the fluorescence intensity of Lysotracker dye in cells.

[4] = tested on: Cln3 KO mice; assay: Immunohistochemical staining of SCMAS in Cln3 KO mouse brain; type: in vivo; details: Cln3 KO mice treated from 21 days to 2 months of age
[5] = tested on: CLN3^Δex7/8 human neural stem cells; assay: Transcriptome sequencing (RNA-seq) of human neural stem cells; type: cell-based; details: 6 μM, 6 hours
Method: In order to detect the effect of Compound G on treated cells, transcriptome sequencing was performed on neural stem cells treated with Compound G, with specific steps as follows: CLN3^Δex7/8 human neural stem cells were seeded into 2% Matrigel-coated 6-well cell plates to a cell density of 80%; fresh cell culture medium containing 6 μM Compound G or an equal volume of DMSO was added, and each treatment condition for two biological replicates; the neural stem cells were incubated in a 37° C. cell culture incubator for 6 hours; the cell culture medium was aspirated, following by washing once with dPBS, and then intracellular RNA was extracted by Qiagen RNeazy Mini Plus Kit; the extracted RNA was sent to ANNOROAD for RNA quality testing first. The purity of RNA was tested using a Nanophotometer spectrophotometer; the concentration of RNA was tested using a Qubit 3.0 Flurometer; the integrity of the RNA was tested using the Aligent 2100 RNA Nano 6000 Assay kit; 2 μg of RNA was taken from each qualified sample for library construction and quantified using Qubit 3.0 Flurometer.
After diluting the library-building samples to 1 ng/μL, the Aligent 2100 RNA Nano 6000 Assay kit and qPCR were used for quality detection; Illumina's Hiseq PE Cluster kit was used for clustering, and the Hiseq 2500 sequencing platform was used for paired-end sequencing to obtain 150 bp paired-end sequencing reads; FastQC software was used to evaluate the quality of the raw data obtained from sequencing, then TrimGalore was used to remove adapter sequences and low-quality sequences, and filtered data was obtained for subsequent analysis.
Comparation between filtered data and human reference genome hg38 was carried with HISAT2, resulting in Bam file, and the number of counts aligned to each gene was counted by FeatureCount, with gtf (GRCh38.92) file provided by Ensembl as annotation. Ensembl IDs were converted to gene names by BiomaRt R package. The genes with fold change>2 and corrected p<0.05 were screened as differential genes, through differential genes expression analysis with DESeq2 software.
In order to explore the mechanism of Compound G in human neural stem cells, transcriptome sequencing experiments were conducted on wild-type human neural stem cells, CLN3^Δex7/8 human neural stem cells and CLN3^Δex7/8 human neural stem cells after treated with Compound G for 6 hours, and differentially expressed genes were analyzed. […] CLN3^Δex7/8 human neural stem cells treated and untreated with Compound G were clustered together (FIG. 29(b, c)). […] With regard to the RNA sequencing results, the effects of Compound G on the transcription level of TFEB, autophagy-related genes and lysosomal genes were also analyzed.

For C/C=C1\C(=O)C[C@H]2[C@@H]3CCC4=CC(=O)CC[C@]4(C)[C@H]3CC[C@]12C [Compound G, (Z)-guggulsterone], the “Lysotracker average fluorescence intensity” value [1] was “could not further increase”, the “number of red fluorescence single-positive autophagosomes” value [2] was “increased the number of red fluorescence single-positive autophagosomes” and the “Lysotracker fluorescence intensity in CLN3^Δex7/8 human neurons” value [3] was “increased significantly”. The “substances (SCMAS) abnormally stored in the brains” value [4] was “alleviate the amount of the substances abnormally stored in the brains of Cln3 KO mice to a certain extent”, the “expression levels of NQO1, LPCAT1 and HLA-E” value [5] was “all increased” and the “gene expression profile (PCA analysis)” value [5] was “did not produce a significant impact”. The “number of differential genes (fold change >2 and corrected p<0.05)” value [5] was 3, the “differential expression folds of NRF2 downstream genes other than NQO1” value ([5]; RNA sequencing) was “less than 2” and the “expressions of multiple NRF2 downstream genes” value ([5]; RNA sequencing) was “elevated”. For the same compound, the “transcription level of TFEB and most autophagy-related genes and lysosomal genes” value ([5]; RNA sequencing) was “no significant effects”.
